± gives the uncertainty stated by the source.
Assay: xn = mol fraction of the nth substance listed

ClC(Cl)(Cl)Cl + CC(C)(C)O
viscosity [mPa·s], 101 kPa
Conditions | 298.15 K | 308.15 K | 318.15 K
x2 = 0.0318 | 0.886 ± 0.009 | 0.768 ± 0.008 | 0.674 ± 0.007
x2 = 0.044 | 0.888 ± 0.009 | 0.77 ± 0.008 | 0.674 ± 0.007
x2 = 0.086 | 0.91 ± 0.009 | 0.78 ± 0.008 | 0.678 ± 0.007
x2 = 0.1644 | 0.958 ± 0.009 | 0.801 ± 0.008 | 0.693 ± 0.007
x2 = 0.2487 | 1.007 ± 0.01 | 0.853 ± 0.008 | 0.712 ± 0.007
x2 = 0.3632 | 1.086 ± 0.01 | 0.897 ± 0.009 | 0.751 ± 0.007
x2 = 0.4833 | 1.221 ± 0.012 | 0.987 ± 0.01 | 0.806 ± 0.008
x2 = 0.6052 | 1.43 ± 0.014 | 1.118 ± 0.011 | 0.892 ± 0.009
x2 = 0.7156 | 1.74 ± 0.017 | 1.303 ± 0.013 | 1.007 ± 0.01
x2 = 0.8301 | 2.392 ± 0.023 | 1.67 ± 0.016 | 1.222 ± 0.012
x2 = 0.9132 | 3.045 ± 0.03 | 1.98 ± 0.02 | 1.381 ± 0.013

CCCC(C)=O + CC(C)=O
viscosity [mPa·s], 101 kPa
Conditions | x1 = 0.2 | x1 = 0.4 | x1 = 0.6 | x1 = 0.8
293.15 K | 0.355 ± 0.004 | 0.391 ± 0.004 | 0.429 ± 0.005 | 0.467 ± 0.005
313.15 K | 0.294 ± 0.003 | 0.322 ± 0.004 | 0.349 ± 0.004 | 0.377 ± 0.004

ClC(Cl)(Cl)Cl + CC(C)=O
viscosity [mPa·s], 101 kPa
Conditions | x1 = 0.0993 | x1 = 0.2003 | x1 = 0.2968 | x1 = 0.4207 | x1 = 0.5193 | x1 = 0.61 | x1 = 0.7052 | x1 = 0.8049 | x1 = 0.9143
293.15 K | 0.3621 ± 0.0097 | 0.4068 ± 0.011 | 0.4555 ± 0.012 | 0.5227 ± 0.014 | 0.5813 ± 0.015 | 0.6398 ± 0.017 | 0.7073 ± 0.019 | 0.7845 ± 0.021 | 0.8843 ± 0.023
298.15 K | 0.3447 ± 0.0093 | 0.3859 ± 0.01 | 0.4311 ± 0.011 | 0.4933 ± 0.013 | 0.5473 ± 0.015 | 0.6015 ± 0.016 | 0.6632 ± 0.018 | 0.7338 ± 0.019 | 0.8251 ± 0.022
303.15 K | 0.3284 ± 0.0089 | 0.3665 ± 0.0099 | 0.409 ± 0.011 | 0.466 ± 0.012 | 0.5196 ± 0.014 | 0.5667 ± 0.015 | 0.6234 ± 0.017 | 0.6889 ± 0.018 | 0.7757 ± 0.021
313.15 K | 0.3001 ± 0.0081 | 0.3321 ± 0.009 | 0.3699 ± 0.0099 | 0.4185 ± 0.011 | 0.4649 ± 0.012 | 0.506 ± 0.013 | 0.5538 ± 0.015 | 0.6106 ± 0.016 | 0.6817 ± 0.018

ClC(Cl)(Cl)Cl + CC(C)CO
viscosity [mPa·s], 101 kPa
Conditions | x2 = 0.0126 | x2 = 0.0461 | x2 = 0.0853 | x2 = 0.2088 | x2 = 0.2911 | x2 = 0.411 | x2 = 0.5341 | x2 = 0.7116 | x2 = 0.8407
298.15 K | 0.888 ± 0.009 | 0.896 ± 0.009 | 0.914 ± 0.009 | 0.995 ± 0.01 | 1.079 ± 0.01 | 1.251 ± 0.012 | 1.521 ± 0.014 | 2.076 ± 0.019 | 2.631 ± 0.024
308.15 K | 0.774 ± 0.008 | 0.774 ± 0.008 | 0.791 ± 0.008 | 0.845 ± 0.008 | 0.909 ± 0.009 | 1.023 ± 0.01 | 1.206 ± 0.012 | 1.581 ± 0.015 | 1.942 ± 0.018
318.15 K | 0.679 ± 0.007 | 0.679 ± 0.007 | 0.695 ± 0.007 | 0.726 ± 0.007 | 0.77 ± 0.008 | 0.851 ± 0.008 | 0.978 ± 0.009 | 1.235 ± 0.012 | 1.482 ± 0.014

CC(C)[O-].CC(C)[O-].CC(C)[O-].CC(C)[O-].[Ti+4] + CC(C)O
viscosity [mPa·s], 101.3 kPa
Conditions | x1 = 0.0502 | x1 = 0.1236 | x1 = 0.2408 | x1 = 0.4582 | x1 = 0.6555
293.15 K | 2.274 ± 0.14 | 2.136 ± 0.13 | 2.072 ± 0.12 | 2.134 ± 0.13 | 2.287 ± 0.14
303.15 K | 1.659 ± 0.1 | 1.526 ± 0.092 | 1.458 ± 0.088 | 1.535 ± 0.093 | 1.498 ± 0.091
313.15 K | 1.274 ± 0.077 | 1.185 ± 0.072 | 1.133 ± 0.068 | 1.167 ± 0.07 | 1.123 ± 0.068
323.15 K | 0.9981 ± 0.06 | 0.9549 ± 0.058 | 0.9172 ± 0.055 | 0.9361 ± 0.057 | 0.9108 ± 0.055

ClC(Cl)(Cl)Cl + CC(C)O
313.15 K, 101.33 kPa
Conditions | viscosity [mPa·s]
x2 = 0.115 | 0.7291 ± 0.019
x2 = 0.22 | 0.7336 ± 0.019
x2 = 0.325 | 0.7548 ± 0.02
x2 = 0.421 | 0.7812 ± 0.02
x2 = 0.5 | 0.8175 ± 0.021
x2 = 0.602 | 0.8746 ± 0.023
x2 = 0.685 | 0.9355 ± 0.024
x2 = 0.745 | 0.9868 ± 0.026
x2 = 0.879 | 1.145 ± 0.03

CCCCCCCCCCCCCC(=O)O + CC(C)[C@@H]1CC[C@@H](C)C[C@H]1O
100 kPa, x1 = 0.2
Conditions | viscosity [mPa·s]
298.15 K | 33.99 ± 0.37
303.15 K | 24.78 ± 0.27
308.15 K | 18.54 ± 0.2
313.15 K | 14.21 ± 0.15
318.15 K | 11.11 ± 0.12
323.15 K | 8.85 ± 0.1

CCCC(C)=O + CCC(C)=O
viscosity [mPa·s], 101 kPa
Conditions | x2 = 0.2 | x2 = 0.4 | x2 = 0.6 | x2 = 0.8
293.15 K | 0.483 ± 0.005 | 0.461 ± 0.005 | 0.439 ± 0.005 | 0.418 ± 0.005
313.15 K | 0.388 ± 0.004 | 0.372 ± 0.004 | 0.357 ± 0.004 | 0.341 ± 0.004

ClC(Cl)(Cl)Cl + CCC(C)=O
Conditions | viscosity [mPa·s]
298 K, 101.3 kPa, x1 = 0.1477 | 0.485 ± 0.006
298 K, 101.3 kPa, x1 = 0.2858 | 0.543 ± 0.007
298 K, 101.3 kPa, x1 = 0.4787 | 0.648 ± 0.008
298 K, 101.3 kPa, x1 = 0.629 | 0.697 ± 0.008
298 K, 101.3 kPa, x1 = 0.8296 | 0.792 ± 0.008
298.15 K, 101.33 kPa, x2 = 0.1954 | 0.736 ± 0.0052
298.15 K, 101.33 kPa, x2 = 0.397 | 0.623 ± 0.0044
298.15 K, 101.33 kPa, x2 = 0.405 | 0.62 ± 0.0043
298.15 K, 101.33 kPa, x2 = 0.499 | 0.576 ± 0.004
298.15 K, 101.33 kPa, x2 = 0.509 | 0.576 ± 0.004
298.15 K, 101.33 kPa, x2 = 0.745 | 0.483 ± 0.0034
298.15 K, 101.33 kPa, x2 = 0.752 | 0.472 ± 0.0033
318 K, 101.3 kPa, x1 = 0.1385 | 0.3877 ± 0.016
318 K, 101.3 kPa, x1 = 0.2858 | 0.4379 ± 0.018
318 K, 101.3 kPa, x1 = 0.4821 | 0.5052 ± 0.02
318 K, 101.3 kPa, x1 = 0.6311 | 0.5625 ± 0.021
318 K, 101.3 kPa, x1 = 0.8418 | 0.6572 ± 0.024

CCN(CC)CC + CCC(C)O
303.15 K, 101 kPa
Conditions | viscosity [mPa·s]
x1 = 0.01087 | 2.436 ± 0.016
x1 = 0.02221 | 2.406 ± 0.016
x1 = 0.0326 | 2.38 ± 0.016
x1 = 0.04176 | 2.357 ± 0.016
x1 = 0.05247 | 2.33 ± 0.015
x1 = 0.06249 | 2.302 ± 0.015
x1 = 0.07262 | 2.276 ± 0.015
x1 = 0.08419 | 2.246 ± 0.015
x1 = 0.09512 | 2.217 ± 0.015

ClC(Cl)(Cl)Cl + CCC(C)O
viscosity [mPa·s], 101 kPa
Conditions | 298.15 K | 308.15 K | 318.15 K
x2 = 0.0864 | 0.89 ± 0.009 | 0.779 ± 0.008 | 0.679 ± 0.007
x2 = 0.1674 | 0.934 ± 0.009 | 0.807 ± 0.008 | 0.686 ± 0.007
x2 = 0.2076 | 0.91 ± 0.009 | 0.801 ± 0.008 | 0.695 ± 0.007
x2 = 0.2585 | 0.94 ± 0.009 | 0.819 ± 0.008 | 0.701 ± 0.007
x2 = 0.3003 | 0.954 ± 0.009 | 0.825 ± 0.008 | 0.713 ± 0.007
x2 = 0.3969 | 1.053 ± 0.01 | 0.862 ± 0.008 | 0.731 ± 0.007
x2 = 0.5009 | 1.163 ± 0.011 | 0.938 ± 0.009 | 0.783 ± 0.008
x2 = 0.5957 | 1.335 ± 0.013 | 1.039 ± 0.01 | 0.86 ± 0.008
x2 = 0.6933 | 1.545 ± 0.015 | 1.183 ± 0.011 | 0.942 ± 0.009
x2 = 0.7903 | 1.863 ± 0.018 | 1.378 ± 0.013 | 1.087 ± 0.011
x2 = 0.9054 | 2.429 ± 0.023 | 1.746 ± 0.017 | 1.287 ± 0.012

ClC(Cl)(Cl)Cl + CCCC(=O)OCC
101.33 kPa
Conditions | viscosity [mPa·s]
303.15 K, x1 = 0.061 | 0.606 ± 0.005
303.15 K, x1 = 0.1443 | 0.621 ± 0.005
303.15 K, x1 = 0.2812 | 0.648 ± 0.005
303.15 K, x1 = 0.3929 | 0.672 ± 0.006
303.15 K, x1 = 0.5226 | 0.699 ± 0.006
303.15 K, x1 = 0.5625 | 0.708 ± 0.006
303.15 K, x1 = 0.6324 | 0.726 ± 0.006
303.15 K, x1 = 0.7331 | 0.748 ± 0.006
303.15 K, x1 = 0.8278 | 0.778 ± 0.006
303.15 K, x1 = 0.8866 | 0.798 ± 0.006
303.15 K, x1 = 0.9455 | 0.819 ± 0.007
313.15 K, x1 = 0.2056 | 0.586 ± 0.005
313.15 K, x1 = 0.4083 | 0.615 ± 0.005
313.15 K, x1 = 0.5058 | 0.631 ± 0.005
313.15 K, x1 = 0.6059 | 0.647 ± 0.005
313.15 K, x1 = 0.799 | 0.69 ± 0.006

Source: the CheMixHub viscosity set
